# Tested on: Mus musculus
# Experiment: Analgesic activity in mouse assessed as protection against acetic acid-induced writhing at one-tenth of LD50 administered subcutaneously 30 mins before acetic acid challenge measured after 4 hrs relative to control
# Type: functional
# Conditions: not given
row,Structure (SMILES),Activity [%]
1,N#Cc1c(-c2cccnc2)cc(-c2c(O)ccc3c(-c4ccccc4)cc(=O)oc23)[nH]c1=N,5.15
2,CN(C)c1ccc(-c2cc(-c3c(O)ccc4c(-c5ccccc5)cc(=O)oc34)[nH]c(=N)c2C#N)cc1,3.76
3,N#Cc1c(-c2ccccc2O)cc(-c2c(O)ccc3c(-c4ccccc4)cc(=O)oc23)[nH]c1=N,2.58
4,COc1ccc(-c2cc(-c3c(O)ccc4c(-c5ccccc5)cc(=O)oc34)[nH]c(=N)c2C#N)cc1,1.88
5,N#Cc1c(-c2ccc(Cl)cc2)cc(-c2c(O)ccc3c(-c4ccccc4)cc(=O)oc23)[nH]c1=N,3.52

# Tested on: Rattus norvegicus
# Experiment: Antipyretic activity against yeast-induced hyperpyrexia in hyperthermic rat assessed as rectal temperature at one-tenth of LD50 administered subcutaneously 18 hrs after yeast challenge measured after 1 hr (Rvb=39.24 +/- 0.22 degC)
# Type: functional
# Conditions: not given
row,Structure (SMILES),Activity [°C]
1,N#Cc1c(-c2cccnc2)cc(-c2c(O)ccc3c(-c4ccccc4)cc(=O)oc23)[nH]c1=N,39.11
2,CN(C)c1ccc(-c2cc(-c3c(O)ccc4c(-c5ccccc5)cc(=O)oc34)[nH]c(=N)c2C#N)cc1,38.38
3,N#Cc1c(-c2ccccc2O)cc(-c2c(O)ccc3c(-c4ccccc4)cc(=O)oc23)[nH]c1=N,39.01
4,COc1ccc(-c2cc(-c3c(O)ccc4c(-c5ccccc5)cc(=O)oc34)[nH]c(=N)c2C#N)cc1,38.9
5,N#Cc1c(-c2ccc(Cl)cc2)cc(-c2c(O)ccc3c(-c4ccccc4)cc(=O)oc23)[nH]c1=N,38.91

# Tested on: Rattus norvegicus
# Experiment: Antipyretic activity against yeast-induced hyperpyrexia in hyperthermic rat assessed as rectal temperature at one-tenth of LD50 administered subcutaneously 18 hrs after yeast challenge measured after 2 hrs (Rvb=39.11 +/- 0.26 degC)
# Type: functional
# Conditions: not given
row,Structure (SMILES),Activity [°C]
1,N#Cc1c(-c2cccnc2)cc(-c2c(O)ccc3c(-c4ccccc4)cc(=O)oc23)[nH]c1=N,38.94
2,CN(C)c1ccc(-c2cc(-c3c(O)ccc4c(-c5ccccc5)cc(=O)oc34)[nH]c(=N)c2C#N)cc1,38.17
3,N#Cc1c(-c2ccccc2O)cc(-c2c(O)ccc3c(-c4ccccc4)cc(=O)oc23)[nH]c1=N,38.91
4,COc1ccc(-c2cc(-c3c(O)ccc4c(-c5ccccc5)cc(=O)oc34)[nH]c(=N)c2C#N)cc1,38.81
5,N#Cc1c(-c2ccc(Cl)cc2)cc(-c2c(O)ccc3c(-c4ccccc4)cc(=O)oc23)[nH]c1=N,39

# Tested on: Rattus norvegicus
# Experiment: Antipyretic activity against yeast-induced hyperpyrexia in hyperthermic rat assessed as rectal temperature at one-tenth of LD50 administered subcutaneously 18 hrs after yeast challenge measured after 3 hrs (Rvb=39.20 +/- 0.24 degC)
# Type: functional
# Conditions: not given
row,Structure (SMILES),Activity [°C]
1,N#Cc1c(-c2cccnc2)cc(-c2c(O)ccc3c(-c4ccccc4)cc(=O)oc23)[nH]c1=N,38.91
2,CN(C)c1ccc(-c2cc(-c3c(O)ccc4c(-c5ccccc5)cc(=O)oc34)[nH]c(=N)c2C#N)cc1,38.39
3,N#Cc1c(-c2ccccc2O)cc(-c2c(O)ccc3c(-c4ccccc4)cc(=O)oc23)[nH]c1=N,38.91
4,COc1ccc(-c2cc(-c3c(O)ccc4c(-c5ccccc5)cc(=O)oc34)[nH]c(=N)c2C#N)cc1,38.81
5,N#Cc1c(-c2ccc(Cl)cc2)cc(-c2c(O)ccc3c(-c4ccccc4)cc(=O)oc23)[nH]c1=N,38.84

# Tested on: Rattus norvegicus
# Experiment: Antipyretic activity against yeast-induced hyperpyrexia in hyperthermic rat assessed as rectal temperature at one-tenth of LD50 administered subcutaneously 18 hrs after yeast challenge measured after 4 hrs (Rvb=39.17 +/- 0.20 degC)
# Type: functional
# Conditions: not given
row,Structure (SMILES),Activity [°C]
1,N#Cc1c(-c2cccnc2)cc(-c2c(O)ccc3c(-c4ccccc4)cc(=O)oc23)[nH]c1=N,38.91
2,CN(C)c1ccc(-c2cc(-c3c(O)ccc4c(-c5ccccc5)cc(=O)oc34)[nH]c(=N)c2C#N)cc1,38.89
3,N#Cc1c(-c2ccccc2O)cc(-c2c(O)ccc3c(-c4ccccc4)cc(=O)oc23)[nH]c1=N,38.94
4,COc1ccc(-c2cc(-c3c(O)ccc4c(-c5ccccc5)cc(=O)oc34)[nH]c(=N)c2C#N)cc1,38.91
5,N#Cc1c(-c2ccc(Cl)cc2)cc(-c2c(O)ccc3c(-c4ccccc4)cc(=O)oc23)[nH]c1=N,38.91

# Tested on: Rattus norvegicus
# Experiment: Antipyretic activity against yeast-induced hyperpyrexia in hyperthermic rat assessed as rectal temperature at 100 mg/kg, sc administered 18 hrs after yeast challenge measured after 1 hr (Rvb=39.24 +/- 0.22 degC)
# Type: functional
# Conditions: route subcutaneous
row,Structure (SMILES),Activity [°C]
1,CC(=O)Nc1ccc(O)cc1 [ACETAMINOPHEN],37.38

# Tested on: Rattus norvegicus
# Experiment: Antipyretic activity against yeast-induced hyperpyrexia in hyperthermic rat assessed as rectal temperature at 100 mg/kg, sc administered 18 hrs after yeast challenge measured after 2 hrs (Rvb=39.11 +/- 0.26 degC)
# Type: functional
# Conditions: route subcutaneous
row,Structure (SMILES),Activity [°C]
1,CC(=O)Nc1ccc(O)cc1 [ACETAMINOPHEN],37.2

# Tested on: Rattus norvegicus
# Experiment: Antipyretic activity against yeast-induced hyperpyrexia in hyperthermic rat assessed as rectal temperature at 100 mg/kg, sc administered 18 hrs after yeast challenge measured after 3 hrs (Rvb=39.20 +/- 0.24 degC)
# Type: functional
# Conditions: route subcutaneous
row,Structure (SMILES),Activity [°C]
1,CC(=O)Nc1ccc(O)cc1 [ACETAMINOPHEN],37.27

# Tested on: Rattus norvegicus
# Experiment: Antipyretic activity against yeast-induced hyperpyrexia in hyperthermic rat assessed as rectal temperature at 100 mg/kg, sc administered 18 hrs after yeast challenge measured after 4 hrs (Rvb=39.17 +/- 0.20 degC)
# Type: functional
# Conditions: route subcutaneous
row,Structure (SMILES),Activity [°C]
1,CC(=O)Nc1ccc(O)cc1 [ACETAMINOPHEN],37.16

# Tested on: not listed separately
# Experiment: Toxicity in sc dosed albino mouse up to 24 hrs
# Type: organism-based
# Conditions: in vivo
row,Structure (SMILES),LD50 at 24 h [mg/kg]
1,N#Cc1c(-c2cccnc2)cc(-c2c(O)ccc3c(-c4ccccc4)cc(=O)oc23)[nH]c1=N,370
2,CN(C)c1ccc(-c2cc(-c3c(O)ccc4c(-c5ccccc5)cc(=O)oc34)[nH]c(=N)c2C#N)cc1,310
3,N#Cc1c(-c2ccccc2O)cc(-c2c(O)ccc3c(-c4ccccc4)cc(=O)oc23)[nH]c1=N,310
4,COc1ccc(-c2cc(-c3c(O)ccc4c(-c5ccccc5)cc(=O)oc34)[nH]c(=N)c2C#N)cc1,330
5,N#Cc1c(-c2ccc(Cl)cc2)cc(-c2c(O)ccc3c(-c4ccccc4)cc(=O)oc23)[nH]c1=N,390

# Tested on: Rattus norvegicus
# Experiment: Antiinflammatory activity against carrageenan-induced foot paw edema in rat assessed as reduction in paw size at one-tenth of LD50 administered subcutaneously 30 mins before carrageenan challenge measured after 3 hrs relative to control
# Type: functional
# Parameters: scale not given: the % may be the effect or the level left
# Conditions: not given
row,Structure (SMILES),Activity [%]
1,N#Cc1c(-c2cccnc2)cc(-c2c(O)ccc3c(-c4ccccc4)cc(=O)oc23)[nH]c1=N,16.21
2,CN(C)c1ccc(-c2cc(-c3c(O)ccc4c(-c5ccccc5)cc(=O)oc34)[nH]c(=N)c2C#N)cc1,18.85
3,N#Cc1c(-c2ccccc2O)cc(-c2c(O)ccc3c(-c4ccccc4)cc(=O)oc23)[nH]c1=N,16.31
4,COc1ccc(-c2cc(-c3c(O)ccc4c(-c5ccccc5)cc(=O)oc34)[nH]c(=N)c2C#N)cc1,15.94
5,N#Cc1c(-c2ccc(Cl)cc2)cc(-c2c(O)ccc3c(-c4ccccc4)cc(=O)oc23)[nH]c1=N,4.7

# Tested on: Rattus norvegicus
# Experiment: Antiinflammatory activity against carrageenan-induced foot paw edema in rat assessed as reduction in paw size at 20 mg/kg, sc administered 30 mins before carrageenan challenge measured after 3 hrs relative to control
# Type: functional
# Parameters: scale not given: the % may be the effect or the level left
# Conditions: route subcutaneous
row,Structure (SMILES),Activity [%]
1,Cc1ccc(-c2cc(C(F)(F)F)nn2-c2ccc(S(N)(=O)=O)cc2)cc1 [CELECOXIB],39.67

# Tested on: Mus musculus
# Experiment: Analgesic activity in mouse assessed as protection against acetic acid-induced writhing at 5 mg/kg, sc administered 30 mins before acetic acid challenge measured after 1 hr relative to control
# Type: functional
# Conditions: route subcutaneous
row,Structure (SMILES),Activity [%]
1,O=C([O-])Cc1ccccc1Nc1c(Cl)cccc1Cl.[Na+] [DICLOFENAC SODIUM],74.02

# Tested on: Mus musculus
# Experiment: Analgesic activity in mouse assessed as protection against acetic acid-induced writhing at 5 mg/kg, sc administered 30 mins before acetic acid challenge measured after 2 hrs relative to control
# Type: functional
# Conditions: route subcutaneous
row,Structure (SMILES),Activity [%]
1,O=C([O-])Cc1ccccc1Nc1c(Cl)cccc1Cl.[Na+] [DICLOFENAC SODIUM],75.24

# Tested on: Mus musculus
# Experiment: Analgesic activity in mouse assessed as protection against acetic acid-induced writhing at 5 mg/kg, sc administered 30 mins before acetic acid challenge measured after 3 hrs relative to control
# Type: functional
# Conditions: route subcutaneous
row,Structure (SMILES),Activity [%]
1,O=C([O-])Cc1ccccc1Nc1c(Cl)cccc1Cl.[Na+] [DICLOFENAC SODIUM],68.44

# Tested on: Mus musculus
# Experiment: Analgesic activity in mouse assessed as protection against acetic acid-induced writhing at 5 mg/kg, sc administered 30 mins before acetic acid challenge measured after 4 hrs relative to control
# Type: functional
# Conditions: route subcutaneous
row,Structure (SMILES),Activity [%]
1,O=C([O-])Cc1ccccc1Nc1c(Cl)cccc1Cl.[Na+] [DICLOFENAC SODIUM],55.82

# Tested on: Mus musculus
# Experiment: Analgesic activity in mouse assessed as protection against acetic acid-induced writhing at one-tenth of LD50 administered subcutaneously 30 mins before acetic acid challenge measured after 1 hr relative to control
# Type: functional
# Conditions: not given
row,Structure (SMILES),Activity [%]
1,N#Cc1c(-c2cccnc2)cc(-c2c(O)ccc3c(-c4ccccc4)cc(=O)oc23)[nH]c1=N,7.49
2,CN(C)c1ccc(-c2cc(-c3c(O)ccc4c(-c5ccccc5)cc(=O)oc34)[nH]c(=N)c2C#N)cc1,9.41
3,N#Cc1c(-c2ccccc2O)cc(-c2c(O)ccc3c(-c4ccccc4)cc(=O)oc23)[nH]c1=N,9.62
4,COc1ccc(-c2cc(-c3c(O)ccc4c(-c5ccccc5)cc(=O)oc34)[nH]c(=N)c2C#N)cc1,4.7
5,N#Cc1c(-c2ccc(Cl)cc2)cc(-c2c(O)ccc3c(-c4ccccc4)cc(=O)oc23)[nH]c1=N,3.28

# Tested on: Mus musculus
# Experiment: Analgesic activity in mouse assessed as protection against acetic acid-induced writhing at one-tenth of LD50 administered subcutaneously 30 mins before acetic acid challenge measured after 2 hrs relative to control
# Type: functional
# Conditions: not given
row,Structure (SMILES),Activity [%]
1,N#Cc1c(-c2cccnc2)cc(-c2c(O)ccc3c(-c4ccccc4)cc(=O)oc23)[nH]c1=N,7.02
2,CN(C)c1ccc(-c2cc(-c3c(O)ccc4c(-c5ccccc5)cc(=O)oc34)[nH]c(=N)c2C#N)cc1,12
3,N#Cc1c(-c2ccccc2O)cc(-c2c(O)ccc3c(-c4ccccc4)cc(=O)oc23)[nH]c1=N,9.38
4,COc1ccc(-c2cc(-c3c(O)ccc4c(-c5ccccc5)cc(=O)oc34)[nH]c(=N)c2C#N)cc1,0.7
5,N#Cc1c(-c2ccc(Cl)cc2)cc(-c2c(O)ccc3c(-c4ccccc4)cc(=O)oc23)[nH]c1=N,2.58

# Tested on: Mus musculus
# Experiment: Analgesic activity in mouse assessed as protection against acetic acid-induced writhing at one-tenth of LD50 administered subcutaneously 30 mins before acetic acid challenge measured after 3 hrs relative to control
# Type: functional
# Conditions: not given
row,Structure (SMILES),Activity [%]
1,N#Cc1c(-c2cccnc2)cc(-c2c(O)ccc3c(-c4ccccc4)cc(=O)oc23)[nH]c1=N,5.15
2,CN(C)c1ccc(-c2cc(-c3c(O)ccc4c(-c5ccccc5)cc(=O)oc34)[nH]c(=N)c2C#N)cc1,11.52
3,N#Cc1c(-c2ccccc2O)cc(-c2c(O)ccc3c(-c4ccccc4)cc(=O)oc23)[nH]c1=N,9.62
4,COc1ccc(-c2cc(-c3c(O)ccc4c(-c5ccccc5)cc(=O)oc34)[nH]c(=N)c2C#N)cc1,1.17
5,N#Cc1c(-c2ccc(Cl)cc2)cc(-c2c(O)ccc3c(-c4ccccc4)cc(=O)oc23)[nH]c1=N,5.39
